Measured values from ChEMBL document CHEMBL1201862, “PubChem BioAssay data set” (2004).
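Growth conditions: 96-well plates. Treatment: test compound, 48 hours, 5 concentrations. Analysis: linear interpolation between bracketing concentrations; unreached endpoints set to highest concentration. At the GI50, growth is halved.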 The source made the active and inactive calls. Rule as the data show it: active = GI50 up to about 1.1 µM and inactive = higher.

How the values were obtained:
Experiment in all cases: inhibition of tumour cell growth, NCI panel, 48 h
A549 = test system: A549
ACHN = test system: ACHN
BT-549 = test system: BT-549
CCRF-CEM = test system: CCRF-CEM
DU-145 = test system: DU-145
EKVX = test system: EKVX
HL-60 = test system: HL-60
Hs-578T = test system: Hs-578T
LOX IMVI = test system: LOX IMVI
MDA-MB-435 = test system: MDA-MB-435
NCI-H460 = test system: NCI-H460
NCI-H522 = test system: NCI-H522
OVCAR-8 = test system: OVCAR-8
RXF 393 = test system: RXF 393
SK-MEL-28 = test system: SK-MEL-28
SNB-75 = test system: SNB-75
SR = test system: SR
SW-620 = test system: SW-620
UACC-257 = test system: UACC-257
Malme-3M = test system: Malme-3M

Cc1nc2c(-c3ccccc3)[nH]c(C)c2c(=O)o1
GI50 (A549): 65.2 µM (inactive) | GI50 (ACHN): 43.8 µM (inactive) | GI50 (BT-549): 24.8 µM (inactive) | GI50 (CCRF-CEM): > 100 µM (inactive) | GI50 (DU-145): 76.2 µM (inactive) | GI50 (EKVX): > 100 µM (inactive) | GI50 (HL-60): 15.7 µM (inactive) | GI50 (Hs-578T): > 100 µM (inactive) | GI50 (LOX IMVI): 42.5 µM (inactive) | GI50 (MDA-MB-435): 46.2 µM (inactive) | GI50 (NCI-H460): > 100 µM (inactive) | GI50 (NCI-H522): 19.7 µM (inactive) | GI50 (OVCAR-8): 41.5 µM (inactive) | GI50 (RXF 393): 35.9 µM (inactive) | GI50 (SK-MEL-28): > 100 µM (inactive) | GI50 (SNB-75): 23.9 µM (inactive) | GI50 (SR): > 100 µM (inactive) | GI50 (SW-620): > 100 µM (inactive) | GI50 (UACC-257): > 100 µM (inactive)

NCC(=O)Nc1ccccc1
GI50 (A549): > 100 µM (inactive) | GI50 (ACHN): > 100 µM (inactive) | GI50 (BT-549): > 100 µM (inactive) | GI50 (DU-145): > 100 µM (inactive) | GI50 (EKVX): > 100 µM (inactive) | GI50 (Hs-578T): > 100 µM (inactive) | GI50 (LOX IMVI): > 100 µM (inactive) | GI50 (MDA-MB-435): > 100 µM (inactive) | GI50 (Malme-3M): > 100 µM (inactive) | GI50 (NCI-H460): > 100 µM (inactive) | GI50 (NCI-H522): > 100 µM (inactive) | GI50 (OVCAR-8): > 100 µM (inactive) | GI50 (RXF 393): > 100 µM (inactive) | GI50 (SK-MEL-28): > 100 µM (inactive) | GI50 (SNB-75): > 100 µM (inactive) | GI50 (SR): > 100 µM (inactive) | GI50 (SW-620): > 100 µM (inactive) | GI50 (UACC-257): > 100 µM (inactive)

O=C1c2ccccc2C(=O)c2c(NC(=O)c3ccc4c5c(ncnc35)-c3ccccc3C4=O)cccc21
GI50 (A549): > 100 µM (inactive) | GI50 (ACHN): > 100 µM (inactive) | GI50 (BT-549): 48 µM (inactive) | GI50 (DU-145): > 100 µM (inactive) | GI50 (EKVX): > 100 µM (inactive) | GI50 (Hs-578T): 57.1 µM (inactive) | GI50 (MDA-MB-435): > 100 µM (inactive) | GI50 (Malme-3M): > 100 µM (inactive) | GI50 (NCI-H460): > 100 µM (inactive) | GI50 (NCI-H522): > 100 µM (inactive) | GI50 (OVCAR-8): > 100 µM (inactive) | GI50 (RXF 393): 22.6 µM (inactive) | GI50 (SK-MEL-28): > 100 µM (inactive) | GI50 (SNB-75): 18.7 µM (inactive) | GI50 (SR): 91.4 µM (inactive) | GI50 (SW-620): > 100 µM (inactive) | GI50 (UACC-257): > 100 µM (inactive)

CCn1c(=O)c2c3cc(O)ccc3oc2c2ccc(O)cc21
GI50 (A549): 24.4 µM (inactive) | GI50 (ACHN): 21.3 µM (inactive) | GI50 (BT-549): 17.4 µM (inactive) | GI50 (CCRF-CEM): 21.1 µM (inactive) | GI50 (DU-145): 29.4 µM (inactive) | GI50 (EKVX): 24.7 µM (inactive) | GI50 (Hs-578T): 5.46 µM (inactive) | GI50 (MDA-MB-435): 27 µM (inactive) | GI50 (Malme-3M): 32.7 µM (inactive) | GI50 (NCI-H460): 26.9 µM (inactive) | GI50 (NCI-H522): 19.3 µM (inactive) | GI50 (OVCAR-8): 36.7 µM (inactive) | GI50 (RXF 393): 30.1 µM (inactive) | GI50 (SK-MEL-28): 35.8 µM (inactive) | GI50 (SNB-75): 22.9 µM (inactive) | GI50 (SR): 18.2 µM (inactive) | GI50 (SW-620): 31.3 µM (inactive) | GI50 (UACC-257): 76.6 µM (inactive)

COc1ccc2c(c1)CCN1CCCc3ccc(OC)cc3C21 (stereo not drawn)
GI50 (A549): 75 µM (inactive) | GI50 (ACHN): > 100 µM (inactive) | GI50 (BT-549): 34 µM (inactive) | GI50 (CCRF-CEM): 42.6 µM (inactive) | GI50 (DU-145): > 100 µM (inactive) | GI50 (EKVX): > 100 µM (inactive) | GI50 (Hs-578T): 48.1 µM (inactive) | GI50 (LOX IMVI): 41.2 µM (inactive) | GI50 (MDA-MB-435): 36.4 µM (inactive) | GI50 (NCI-H522): 32.3 µM (inactive) | GI50 (OVCAR-8): > 100 µM (inactive) | GI50 (RXF 393): 41.4 µM (inactive) | GI50 (SK-MEL-28): > 100 µM (inactive) | GI50 (SNB-75): 16.4 µM (inactive) | GI50 (SR): 41.5 µM (inactive) | GI50 (SW-620): 76.7 µM (inactive) | GI50 (UACC-257): 73.8 µM (inactive)

O=C1Cc2c(-c3ccccc3)cc(-c3ccc4ccccc4c3)nc2-c2ccccc2N1
GI50 (A549): 14.9 µM (inactive) | GI50 (ACHN): 3.72 µM (inactive) | GI50 (BT-549): 27.4 µM (inactive) | GI50 (CCRF-CEM): > 100 µM (inactive) | GI50 (DU-145): 34.5 µM (inactive) | GI50 (EKVX): 7.16 µM (inactive) | GI50 (Hs-578T): 2.96 µM (inactive) | GI50 (LOX IMVI): 16.7 µM (inactive) | GI50 (MDA-MB-435): 17.2 µM (inactive) | GI50 (Malme-3M): 7.06 µM (inactive) | GI50 (NCI-H460): 11.4 µM (inactive) | GI50 (NCI-H522): 3.25 µM (inactive) | GI50 (OVCAR-8): 1.46 µM (inactive) | GI50 (RXF 393): 2.9 µM (inactive) | GI50 (SK-MEL-28): > 100 µM (inactive) | GI50 (SNB-75): 0.307 µM (active) | GI50 (SR): 39.3 µM (inactive) | GI50 (SW-620): 29.2 µM (inactive) | GI50 (UACC-257): 22.3 µM (inactive)
